The target in the experiment is T1, rat FAAH (Rattus norvegicus, UniProt P97612).
T1 construct: encoding for amino acids 32-579 and an N-terminal His-tag; His-tag (N); made in house; host or cells: E. coli BL21 (DE3)
T1 sequence (P97612 32-579): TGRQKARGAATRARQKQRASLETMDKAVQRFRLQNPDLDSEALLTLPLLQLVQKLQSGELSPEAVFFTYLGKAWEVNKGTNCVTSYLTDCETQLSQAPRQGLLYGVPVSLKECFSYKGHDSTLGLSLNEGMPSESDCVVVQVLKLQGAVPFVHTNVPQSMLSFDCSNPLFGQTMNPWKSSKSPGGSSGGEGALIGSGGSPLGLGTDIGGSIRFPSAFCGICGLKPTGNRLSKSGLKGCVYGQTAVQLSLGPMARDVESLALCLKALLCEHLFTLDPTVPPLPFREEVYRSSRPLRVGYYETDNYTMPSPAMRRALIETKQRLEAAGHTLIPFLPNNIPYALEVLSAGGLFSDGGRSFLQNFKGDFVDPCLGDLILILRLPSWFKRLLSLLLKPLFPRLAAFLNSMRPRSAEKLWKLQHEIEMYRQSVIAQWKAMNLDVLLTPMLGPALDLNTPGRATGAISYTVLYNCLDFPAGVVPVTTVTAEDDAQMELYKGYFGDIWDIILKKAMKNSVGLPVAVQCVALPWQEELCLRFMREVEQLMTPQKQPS
The experiment can be described thus: Ki determination, rat FAAH (AMC-arachidonoyl amide hydrolysis, fluorescence end point). Conditions: rFAAH 6 nM, substrate 20 μM, 30 min preincubation, 4 hours at room temperature. The class given is biochemical. As for the experimental part: An N-terminal transmembrane domain deleted rat FAAH (rFAAH) was cloned as described in Patricelli et al., Biochemistry (1998) 37:15177-15187, encoding for amino acids 32-579 and an N-terminal His-tag, herein referred to as rFAAH. E. coli BL21 (DE3) were transformed according to manufacturer protocols (Invitrogen) and rFAAH was expressed and purified from a modified procedure described in Patricelli et al., 1998.
Briefly, 8 L of cells were cultured to an OD600nm of 0.6 at 37° C., and FAAH expression induced by 1 mM IPTG, followed by 4 hours of growth. Cells were pelleted by centrifugation at 5000×g to generate the cell paste. […]
Soluble rFAAH was purified from the supernatant using nickel (Ni), heparin and size exclusion chromatography (SEC) columns. […] Eluted samples were pooled, concentrated to ˜5 mg/mL and final rFAAH concentrations determined by measuring the absorbance at 280 nm, using an extinction coefficient of ϵ=60850 M^−1 cm^−1. […]
The Ki of a test compound was determined for rat and human FAAH by measuring the dose dependent inhibition of AMC-Arachidonoyl amide hydrolysis as an end point read. Assays were carried out in Corning COSTAR® 384 well flat black bottom microtiter plates (Catalog #3654) and monitored in an Envision 2100 multilabel plate reader (Perkin Elmer-Wallac), with a 355 nm (40 nm band pass) excitation filter and 460 nm (25 nm bandpass) emission filter. […]

`OB(O)c1ccc(-c2ccc(B(O)O)c(F)c2)cc1F` [IMP-4]: the Ki (as a rule, the dissociation constant of the complex between target and ligand, obtained from inhibition or displacement) came to 5.1 nM.
